Test results from patent publication US20240398759A1, “INHIBITING SEROTONIN TRANSPORTER PROTEIN (5-HTT)” (priority 2022, published 2024).
Like-named read-outs stand apart in the source and are kept apart here.

Experiments:
SERT = SERT (Homo sapiens (Human), UniProt P31645); assay: SERT inhibition assay (Neurotransmitter Transporter fluorescence uptake, stable 5HTT HEK293 cells); format: cell-based; details: n=6 ± SD
Method: SERT inhibition was measured using a Neruotransmitter Transportation Fluorescence assay. Briefly, stable 5HTT HEK293 cells were prepared in a 384 microwell plate (20,000 cells per 20 μL well). Compounds were prepared by in assay buffer (20 mM HEPES in HBSS, 0.1% BSA) at a top concentration of 1 μM. 10 doses of test compound (3-fold serial dilution) were added to the plated cells and incubated for 30 minutes at 37° C. 25 μL of dye solution (Molecular Devices Neurotransmitter Transporter Uptake Assay Kit) was added per well and incubated for 30 minutes at 37° C.

[1] = human, 1 µM
Method: (§4) A 2.5 uL aliquot of 100 μM test compound was incubated with 247.5 uL of cryopreserved hepatocytes suspended in serum-free incubation medium at 1 million viable cells/mL. The mixture was incubated at 37° C. and shaken at 500 rpm for the designated time points (0.5, 5, 10, 15, 30, 60, 90, or 120 min). At each time point, 25 uL aliquot of incubation mixture was transferred to 125 uL of cold acetonitrile containing internal standard, followed by centrifugation for 30 min at 3,220 g. 100 uL of supernatant was mixed with 100 uL of distilled water for analysis by LC-MS/MS. Peak area ratios were determined from extracted ion chromatograms and percent recovery was calculated.

PDE4A1A = PDE4A1A (Homo sapiens (Human), UniProt P27815); assay: PDE4 inhibition assay (fluorescence polarization), PDE4A1A; format: biochemical
Method: (§1) 100 μM dilutions of the test compounds were prepared in assay buffer (10% DMSO concentration) and 5 μl of the dilution was added to a 50 μl reaction so that the final concentration of DMSO is 1% in all of reactions. The enzymatic reactions were conducted at room temperature for 60 minutes in a 50 μl mixture containing PDE assay buffer, 100 nM FAM-cAMP, a PDE enzyme (Table 2.3.1) and the test compound (Section 2.2). After the enzymatic reaction, 100 μl of a binding solution (1:100 dilution of the binding agent with the binding agent diluent) was added to each reaction and the reaction was performed at room temperature for 60 minutes. Fluorescence intensity was measured at an excitation of 485 nm and an emission of 528 nm using a Tecan Infinite M1000 microplate reader.
(§2) • 1) Dilute 20 μM FAM-Cyclic-3′, 5′-AMP stock 100-fold with PDE buffer to make a 200 nM solution. • 2) Add 25 μl of FAM-Cyclic-3′,5′-AMP (200 nM) to each well designated “Positive Control”, “Test Inhibitor”, and “Substrate Control”. • 3) Add 20 μl of PDE assay buffer to each well designated “Substrate Control” and 45 μl of PDE assay buffer to each well designated “Blank”. • 4) Add 5 μl of inhibitor solution to each well designated “Test Inhibitor”. For the wells labeled “Positive Control”, “Substrate Control” and “Blank”, add 5 μl of the same solution without inhibitor (inhibitor buffer). • 5) Thaw PDE on ice. Upon first thaw, briefly spin tube containing enzyme to recover the full contents of the tube. • 6) Dilute PDE4 in PDE buffer to 7.5 pg/μl (0.15 ng/reaction)*. Initiate reaction by adding 20 µl of PDE4 (7.5 pg/μl) to the wells designated “Positive Control” and “Test Inhibitor.” • 7) Incubate at room temperature for 1 hour.
(§3) • 1) Mix binding agent thoroughly and dilute binding agent 1:100 with binding agent diluent. • 2) Add 100 μl diluted binding agent to each microwell. Incubate at room temperature for 1 hour with slow shaking. • 3) Read the fluorescent polarization of the sample in a microtiter-plate reader equipped for the measurement of fluorescence polarization, capable of excitation at wavelengths ranging from 485±5 nm and detection of emitted light ranging from 528±10 nm. Blank value is subtracted from all other values. • 4) Data Analysis: PDE activity assays were performed in duplicate at each concentration. Fluorescence intensity is converted to fluorescence polarization using the Tecan Magellan6 software. The fluorescence polarization data were analyzed using the computer software, Graphpad Prism. The fluorescence polarization (FPt) in absence of the compound in each data set was defined as 100% activity. In the absence of PDE and the compound, the value of fluorescent polarization (FPb) in each data set was defined as 0% activity. The percent activity in the presence of the compound was calculated according to the following equation: % activity=(FP−FPb)/(FPt−FPb)×100%, where FP=the fluorescence polarization in the presence of the compound. The values of % activity versus a series of compound concentrations were then plotted using non-linear regression analysis of sigmoidal dose-response curve generated with the equation Y=B+(T−B)/1+10^(LogEC50−X)×Hill Slope), where Y=percent activity, B=minimum percent activity, T=maximum percent activity, X=logarithm of compound and Hill Slope=slope factor or Hill coefficient. The IC50 value was determined by the concentration causing a half-maximal percent activity.

in vivo = details: beagle, dog
Text: (§5) HPLC Instrument: Shimsadzu (DGU-20A5R, Serial No: L20705621435 IX; LC-30AD Serial No: L20555611905 AE and L20555611816 AE; SIL-L30AC, Serial No: L20565605499 AE; Rack Changer II Serial No. L20585601125 SS; CTO20A: Serial No. L20205620413 CD; CBM-20A: Serial No. L20235636200 CD) • MS: AB API 5500 LC/MS/MS instrument (Serial No. EF221221812) • Column: Phenomenex Synergi 2.5 μm Polar-RP 100A. (50×3 mm) • Mobile Phase: (A) 5% Acetonitrile in Water (0.1% Formic acid); (B) 95% Acetonitrile in Water (0.1% Formic acid) • Samples: 50 μL of plasma sample+5 μL of blank solution+200 μL of acetonitrile for PPE (protein precipitation extraction).
(§6) The desired serial concentrations of working solutions were achieved by diluting stock solution of analyte with 50% acetonitrile in water solution. 5 μL of working solutions (5, 10, 20, 50, 100, 500, 1000, 5000, 10000 ng/mL) were added to 50 μL of the blank Beagle Dog plasma to achieve calibration standards of 0.5˜1000 ng/mL (0.5, 1, 2, 5, 10, 50, 100, 500, 1000 ng/mL) in a total volume of 55 μL. Five quality control samples at 1 ng/mL, 2 ng/mL, 5 ng/mL, 50 ng/mL and 800 ng/mL for plasma were prepared independently of those used for the calibration curves. These QC samples were prepared on the day of analysis in the same way as calibration standards.
(§7) 55 μL standards, 55 μL QC samples and 55 μL unknown samples 50 μL plasma with 5 μL blank solution) were added to 200 μL of acetonitrile containing IS mixture for precipitating protein respectively. Then the samples were vortexed for 30 s. After centrifugation at 4 degree Celsius, 3900 rpm for 15 min, the supernatant was diluted 3 times with water.

in vitro = details: human hepatocytes
Method: as §4

mouse behavior = assay: SmartCube system behavioral signature in mice; format: in vivo
Text: To confirm that compound 018 and Compound 019 has antidepressant effects, the SmartCube® system (Psychogenics, Inc., Paramus, NJ) was used. This system uses features derived from mouse behavioral data to classify compounds for their ability to treat neuro-psychiatric symptoms by comparing the features to a proprietary reference database of behavioral feature sets that are linked to classes of marketed drugs known to treat neuro-psychiatric symptoms. Thus the system can be used as a model to identify the psychiatric effect of a compound by comparing the effects of the compounds against drugs with known validated effects. By comparing the responses of animals to known drugs, the test drug can be categorized according to its function; for example, hallucinogen, anxiogenic, analgesic, cognitive enhancer, psychostimulant, mood stabilizer, high dose anti-psychotic, anti-psychotic, sedative/hypnotic, anxiolytic, high dose antidepressant, antidepressant.
Once all features are extracted from the raw data through an automated pipeline, proprietary bioinformatics algorithms are used to decorrelate groups of features and find the combination of values that best separate different groups of interest. For each compound, at each dose, they system provides a probability that the drug is active and breaks down such putative activity into the different classes of interest.
Mice were tested in the SmartCube® system where they were exposed to a sequence of challenges during the 45-minute test period. The cubes were cleaned between each run.
For class and subclass analysis, a reference data set has been built from hundreds of drug doses in multiple drug classes plus a control group. Each reference drug was tested at multiple doses appropriate for that drug in mice. The best performing classifiers were chosen from our evaluation tests and two separate types of classifiers were built that make independent predictions at drug class and subclass levels. The Class consists of drugs that are currently in the market or have been clinically validated for that specific indication. The sub-class consists of both marketed drugs and other compounds that have been mechanistically validated and is a larger set than the Class.
Data was processed using proprietary computer vision and data mining algorithms and the results were compared to signatures of the reference compounds in our database. Multiple analyses of the data was performed to quantitatively produce independent predictions of drug class, and drug subclass. The behavioral signatures of the test drug were evaluated using these classifiers to predict potential therapeutic utility.

[2] = beagle, dog, in vivo
Text: as §5, §6, §7

PDE4B2 = PDE4B2 (Homo sapiens (Human), UniProt Q07343); assay: PDE4 inhibition assay (fluorescence polarization), PDE4B2; format: biochemical
Method: as §1, §2, §3

PDE4D2 = PDE4D2 (Homo sapiens (Human), UniProt Q08499); assay: PDE4 inhibition assay (fluorescence polarization), PDE4D2; format: biochemical
Method: as §1, §2, §3

PDE4C1 = PDE4C1 (Homo sapiens (Human), UniProt Q08493); assay: PDE4 inhibition assay (fluorescence polarization), PDE4C1; format: biochemical
Method: as §1, §2, §3

[3] = Hepatocyte metabolism (stability in cryopreserved hepatocytes); details: human hepatocytes
Method: as §4

5-HT transporter (SERT) = 5-HT transporter (SERT) (Homo sapiens (Human), UniProt P31645); details: cited from earlier work
[4] = Pharmacokinetic profile in dogs (IV and PO); details: dog, mean n=3
Text: as §5, §6, §7

PDE4B2, sequence (Q07343 other isoform, or with tags, fused parts or gaps): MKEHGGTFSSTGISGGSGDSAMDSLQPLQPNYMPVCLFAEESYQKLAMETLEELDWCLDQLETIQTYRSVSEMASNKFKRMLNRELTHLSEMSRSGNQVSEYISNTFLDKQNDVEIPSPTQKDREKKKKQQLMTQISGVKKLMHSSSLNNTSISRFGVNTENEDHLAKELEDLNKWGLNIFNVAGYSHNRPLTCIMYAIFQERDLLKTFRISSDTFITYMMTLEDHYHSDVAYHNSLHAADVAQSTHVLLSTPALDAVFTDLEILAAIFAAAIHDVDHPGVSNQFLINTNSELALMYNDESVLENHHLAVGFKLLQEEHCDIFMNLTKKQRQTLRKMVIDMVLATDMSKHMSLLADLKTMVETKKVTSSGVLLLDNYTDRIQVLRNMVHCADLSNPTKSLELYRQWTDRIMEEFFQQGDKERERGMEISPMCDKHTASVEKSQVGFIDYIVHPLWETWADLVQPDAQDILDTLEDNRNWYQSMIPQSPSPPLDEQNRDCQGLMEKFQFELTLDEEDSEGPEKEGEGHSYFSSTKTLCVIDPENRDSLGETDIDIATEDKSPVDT
PDE4C1, sequence (Q08493 whole entry): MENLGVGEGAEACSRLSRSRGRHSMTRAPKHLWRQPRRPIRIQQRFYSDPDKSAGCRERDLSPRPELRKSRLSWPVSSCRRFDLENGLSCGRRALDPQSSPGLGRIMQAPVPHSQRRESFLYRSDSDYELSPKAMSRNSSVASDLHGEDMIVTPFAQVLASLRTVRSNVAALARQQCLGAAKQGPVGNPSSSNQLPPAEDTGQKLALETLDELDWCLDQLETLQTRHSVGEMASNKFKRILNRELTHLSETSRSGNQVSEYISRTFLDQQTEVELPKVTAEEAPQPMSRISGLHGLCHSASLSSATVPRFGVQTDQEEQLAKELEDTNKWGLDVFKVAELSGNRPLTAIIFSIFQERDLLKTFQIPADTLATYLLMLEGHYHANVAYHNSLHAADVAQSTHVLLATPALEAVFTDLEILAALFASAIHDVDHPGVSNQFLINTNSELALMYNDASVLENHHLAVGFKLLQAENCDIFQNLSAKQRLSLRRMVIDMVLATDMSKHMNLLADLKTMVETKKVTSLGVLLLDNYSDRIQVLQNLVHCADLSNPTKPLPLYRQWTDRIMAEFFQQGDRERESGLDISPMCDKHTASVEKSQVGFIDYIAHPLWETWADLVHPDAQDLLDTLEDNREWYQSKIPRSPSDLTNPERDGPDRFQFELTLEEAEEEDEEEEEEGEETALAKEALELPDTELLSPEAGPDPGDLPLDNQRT
PDE4A1A, sequence (P27815 other isoform, or with tags, fused parts or gaps): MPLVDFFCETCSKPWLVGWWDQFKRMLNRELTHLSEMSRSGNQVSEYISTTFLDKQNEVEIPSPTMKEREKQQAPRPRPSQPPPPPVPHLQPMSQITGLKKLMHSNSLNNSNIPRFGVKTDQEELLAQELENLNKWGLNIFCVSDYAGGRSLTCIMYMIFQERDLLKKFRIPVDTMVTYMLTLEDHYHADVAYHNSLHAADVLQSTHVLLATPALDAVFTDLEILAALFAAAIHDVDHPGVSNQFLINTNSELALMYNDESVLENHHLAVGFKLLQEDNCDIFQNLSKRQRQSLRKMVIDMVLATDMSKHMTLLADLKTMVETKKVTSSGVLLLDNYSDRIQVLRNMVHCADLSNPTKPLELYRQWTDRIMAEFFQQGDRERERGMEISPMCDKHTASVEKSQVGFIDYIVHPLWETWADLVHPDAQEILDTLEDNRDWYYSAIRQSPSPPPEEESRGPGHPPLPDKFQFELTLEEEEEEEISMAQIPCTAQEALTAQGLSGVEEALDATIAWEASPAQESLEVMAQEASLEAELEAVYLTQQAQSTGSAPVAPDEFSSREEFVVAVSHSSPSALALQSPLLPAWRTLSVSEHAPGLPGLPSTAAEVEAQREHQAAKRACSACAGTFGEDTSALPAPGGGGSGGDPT
PDE4D2, sequence (Q08499 303-809): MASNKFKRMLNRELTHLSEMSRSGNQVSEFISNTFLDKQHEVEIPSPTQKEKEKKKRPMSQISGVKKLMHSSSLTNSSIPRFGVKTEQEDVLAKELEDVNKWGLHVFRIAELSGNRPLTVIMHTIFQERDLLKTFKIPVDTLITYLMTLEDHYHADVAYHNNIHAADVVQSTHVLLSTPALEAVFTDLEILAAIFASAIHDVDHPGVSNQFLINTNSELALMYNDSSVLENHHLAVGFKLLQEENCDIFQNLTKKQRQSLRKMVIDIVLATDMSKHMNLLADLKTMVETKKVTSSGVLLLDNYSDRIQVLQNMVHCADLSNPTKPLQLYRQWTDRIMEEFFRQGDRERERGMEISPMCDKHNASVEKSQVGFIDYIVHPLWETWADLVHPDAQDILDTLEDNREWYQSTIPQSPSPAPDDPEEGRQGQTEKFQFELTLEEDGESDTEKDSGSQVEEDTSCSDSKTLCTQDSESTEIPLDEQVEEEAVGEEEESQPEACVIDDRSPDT

COc1ccc([C@@]23CC[C@@H](O)C[C@@H]2N(C)CC3)cc1OC [Compound 018, (3aS,6R,7aS)-3a-(3,4-dimethoxyphenyl)-1-methyloctahydro-1H-indol-6-ol]
IC50 (SERT): 21.9 ± 8 nM | % QH [1]: 13% | CLHB [1]: 3 mL/min/kg | PDE4A1A % INH @ 10 μM (PDE4A1A; 10 μM): 5% | inhibition at 10 µM (PDE4A1A; 10 μM, read-out: PDE4A1A % INH @ 10 μM): ≤ 5% | AUC(0-inf) (in vivo; iv, 2 mg/kg): 712 ng·h/mL | AUC(0-t) (in vivo; iv, 2 mg/kg): 710 ng·h/mL | C0 (in vivo; iv, 2 mg/kg): 6250 ng/mL | MRT inf (in vivo; iv, 2 mg/kg): 0.71 h | half-life (in vivo; iv, 2 mg/kg): 1.78 h | AUC(0-inf) (in vivo; po, 10 mg/kg): 151 ng·h/mL | AUC(0-t) (in vivo; po, 10 mg/kg): 144 ng·h/mL | Cmax (in vivo; po, 10 mg/kg): 84.4 ng/mL | MRT inf (in vivo; po, 10 mg/kg): 3.95 h | Tmax (in vivo; po, 10 mg/kg): 0.28 h | half-life (in vivo; po, 10 mg/kg): 5.95 h | CLint scaled at 1 µM (in vitro): 3 mL/min/kg | half-life at 1 µM (in vitro): > 2 h | hepatocyte CLint at 1 µM (in vitro): 1 µL/min/1e6 cells | behavioral activity (mouse behavior; mice, 3 mg/kg): < 40% | behavioral activity (in words) (mouse behavior; mice, 3 mg/kg): behaviorally inactive | signature in class and subclass (mouse behavior; mice, 10, 30 and 100 mg/kg): robust antidepressant-like signature with a small portion showing psychostimulant-like signature | AUC_% Extrap_obs ([2]; iv, 2 mg/kg): 0.26% | AUClast/D ([2]; iv, 2 mg/kg): 355 | Cl_obs ([2]; iv, 2 mg/kg): 47.6 mL/min/kg | AUC_% Extrap_obs ([2]; po, 10 mg/kg): 5.10% | AUClast/D ([2]; po, 10 mg/kg): 14.4 | F ([2]; po, 10 mg/kg): 4.3% | PDE4B2 % INH @ 10 μM (PDE4B2): 3% | inhibition at 10 µM (PDE4B2; read-out: PDE4B2 % INH @ 10 μM): ≤ 5% | PDE4D2 %INH @ 10 μM (PDE4D2; 10 μM): 4% | inhibition at 10 µM (PDE4D2; 10 μM, read-out: PDE4D2 %INH @ 10 μM): ≤ 5% | PDE4C1 % INH @ 10 μM (PDE4C1): 1% | PDE4C1 % INH @ 10 μM (PDE4C1; listed as Compound 18): no more than 5% | Extraction Ratio [3]: 0.13 | t1/2 [3]: >2 h

COc1ccc(C23C=CC(O)CC2N(C)CC3)cc1OC [Compound 020, (S, R, S) Mesembrenol]
PDE4A1A % INH @ 10 μM (PDE4A1A; 10 μM): 68% | PDE4B2 % INH @ 10 μM (PDE4B2): 62% | PDE4D2 %INH @ 10 μM (PDE4D2; 10 μM): 72% | PDE4C1 % INH @ 10 μM (PDE4C1): 32%

COc1ccc(C23C=CC(O)CC2N(C)CC3)cc1OC [Compound 021, (R, R, S) Mesembrenol]
PDE4A1A % INH @ 10 μM (PDE4A1A; 10 μM): 22% | PDE4B2 % INH @ 10 μM (PDE4B2): 12% | PDE4D2 %INH @ 10 μM (PDE4D2; 10 μM): 15% | PDE4C1 % INH @ 10 μM (PDE4C1): 7%

COc1ccc(C23C=CC(O)CC2N(C)CC3)cc1OC [Compound 023, (R, S, R) Mesembrenol]
PDE4A1A % INH @ 10 μM (PDE4A1A; 10 μM): 15% | PDE4B2 % INH @ 10 μM (PDE4B2): 16% | PDE4D2 %INH @ 10 μM (PDE4D2; 10 μM): 21% | PDE4C1 % INH @ 10 μM (PDE4C1): 9%

COc1ccc(C23C=CC(O)CC2N(C)CC3)cc1OC [Compound 024, (S, S, R) Mesembrenol]
PDE4A1A % INH @ 10 μM (PDE4A1A; 10 μM): 45% | PDE4B2 % INH @ 10 μM (PDE4B2): 55% | PDE4D2 %INH @ 10 μM (PDE4D2; 10 μM): 53% | PDE4C1 % INH @ 10 μM (PDE4C1): 18%

COc1ccc(C23C=CC(O)CC2N(C)CC3)cc1OC (stereo not shown) [Mesembrenol]
Ki (5-HT transporter (SERT); binding to the 5-HT transporter, isolated alkaloids): 62 nM | nH (5-HT transporter (SERT); concentration response curves, 5-HT transporter): 1.1

(+) Mesembrine [Compound 002]
PDE4A1A % INH @ 10 μM (PDE4A1A; 10 μM): 56% | PDE4D2 %INH @ 10 μM (PDE4D2; 10 μM): 54% | PDE4C1 % INH @ 10 μM (PDE4C1): 26%

(−) Mesembrine [Compound 001]
AUCInf ([4]; IV 2 mg/kg): 809 ng·h/mL | AUC_% Extrap_obs ([4]; IV 2 mg/kg): 0.53% | AUClast ([4]; IV 2 mg/kg): 805 ng·h/mL | AUClast/D ([4]; IV 2 mg/kg): 402 | C0 ([4]; IV 2 mg/kg): 1226 ng/mL | Cl_obs ([4]; IV 2 mg/kg): 44.07 mL/min/kg | MRTInf_obs ([4]; IV 2 mg/kg): 1.41 h | T1/2 ([4]; IV 2 mg/kg): 1.65 h | AUCInf ([4]; PO 10 mg/kg): 3113.0 ng·h/mL | AUC_% Extrap_obs ([4]; PO 10 mg/kg): 0.25% | AUClast ([4]; PO 10 mg/kg): 3106.9 ng·h/mL | AUClast/D ([4]; PO 10 mg/kg): 310.7 | Cmax ([4]; PO 10 mg/kg): 1878.0 ng/mL | F ([4]; PO 10 mg/kg): 76.9% | MRTInf_obs ([4]; PO 10 mg/kg): 1.81 h | T1/2 ([4]; PO 10 mg/kg): 2.99 h | Tmax ([4]; PO 10 mg/kg): 0.28 h | IC50 (PDE4A1A): 4300 nM | IC50 (PDE4D2): 2700 nM | IC50 (PDE4C1): 15000 nM | % QH [3]: 86% | CLHB [3]: 18 mL/min/kg | Hepatocyte Clint [3]: 55 μL/min/10^6 cells | t1/2 [3]: 0.217 h | CLint ([3]; scaled): 131 mL/min/kg
